For orientation: IC50 means the concentration at which inhibition is half-maximal.

For six compounds, IC50 results are on record in ChEMBL document CHEMBL4392879, “Secondary Metabolites of Onygenales Fungi Exemplified by Aioliomyces pyridodomos” (J Nat Prod, 2019).

Converted amounts (≈) assume the structure as drawn.

In the test the test system is Histoplasma capsulatum. Briefly: Antifungal activity against Histoplasma capsulatum G217B after 10 to 14 days by microscopic method. The test is classed as functional, organism-based.

In the case of `C/C=C/C=C/c1c(CC=C(C)C)cc(CC=C(C)C)c(O)c1CO`, the IC50 came out at 8 µg/mL (≈ 24.5 µM).

Regarding `C/C=C/C=C/c1c(CC=C(C)C)cc2c(c1CO)OC(C)(C)C(O)C2=O` (stereo unspecified), 16 µg/mL (≈ 44.9 µM) corresponded to half-maximal inhibition (IC50). This IC50 lies about 2-fold higher than the previous one.

Take `CC(C)=CCc1cc2c(c3c1[C@@H]1C[C@H](C3=O)[C@@H]1C)OC(C)(C)[C@H](O)C2=O`: the IC50 was determined as 64 µg/mL (≈ 181 µM). Compared with the last compound, the IC50 is about 4-fold higher.

The compound `CC(C)=CCc1cc2c(c3c1[C@@H]1C[C@H](C3=O)[C@@H]1C)OC(C)(C)[C@@H](O)C2=O` came in with an IC50 of 32 µg/mL (≈ 90.3 µM).

`C[C@@H]1[C@H](O)[C@@H](C)/C=C/C=C/C=C/C=C/C=C/C=C/C=C/[C@H](O[C@@H]2O[C@H](C)[C@@H](O)[C@H](N)[C@@H]2O)C[C@@H]2O[C@](O)(C[C@@H](O)C[C@@H](O)[C@H](O)CC[C@@H](O)C[C@@H](O)CC(=O)O[C@H]1C)C[C@H](O)[C@H]2C(=O)O` [AMPHOTERICIN B] displayed an IC50 of 0.5 µg/mL (≈ 0.541 µM).

The compound `CCC(C)n1ncn(-c2ccc(N3CCN(c4ccc(OCC5COC(Cn6cncn6)(c6ccc(Cl)cc6Cl)O5)cc4)CC3)cc2)c1=O` (stereo unspecified) [ITRACONAZOLE] gave an IC50 of 0.001 µg/mL (≈ 0.00142 µM).
